Columns and labels:
Format in all cases: in vivo
ZEAMX [1] = assay: Pre-emergence herbicidal activity, glasshouse pot test; conditions: rate 1000 g/Ha, evaluated after 13 days, scale 0-5
Description: (§1) Seeds of a variety of test species were sown in standard soil in pots. After cultivation for one day (pre-emergence) under controlled conditions in a glasshouse (at 24/16° C., day/night; 14 hours light; 65% humidity), the plants were sprayed with an aqueous spray solution derived from the formulation of the technical active ingredient in acetone/water (50:50) solution containing 0.5% Tween 20 (polyoxyethelyene sorbitan monolaurate, CAS RN 9005-64-5). The test plants were then grown in a glasshouse under controlled conditions (at 24/16° C., day/night; 14 hours light; 65% humidity) and watered twice daily. After 13 days, the test was evaluated (5=total damage to plant; 0=no damage to plant).

ABUTH [2] = assay: as above; conditions: rate 1000 g/Ha, evaluated after 13 days, scale 0-5
Description: as §1

ECHCG [3] = assay: as above; conditions: rate 1000 g/Ha, evaluated after 13 days, scale 0-5
Description: as §1

AMARE [4] = assay: as above; conditions: rate 1000 g/Ha, evaluated after 13 days, scale 0-5
Description: as §1

SETFA [5] = assay: as above; conditions: rate 1000 g/Ha, evaluated after 13 days, scale 0-5
Description: as §1

ZEAMX [6] = assay: Post-emergence herbicidal activity, glasshouse pot test; conditions: Zea mays; application post-emergence; rate 1000 g/Ha; evaluated after 13 days
Description: (§2) Seeds of a variety of test species were sown in standard soil in pots. After 8 days cultivation (post-emergence) under controlled conditions in a glasshouse (at 24/16° C., day/night; 14 hours light; 65% humidity), the plants were sprayed with an aqueous spray solution derived from the formulation of the technical active ingredient in acetone/water (50:50) solution containing 0.5% Tween 20 (polyoxyethelyene sorbitan monolaurate, CAS RN 9005-64-5). The test plants were then grown in a glasshouse under controlled conditions (at 24/16° C., day/night; 14 hours light; 65% humidity) and watered twice daily. After 13 days, the test was evaluated (5=total damage to plant; 0=no damage to plant).

ABUTH [7] = assay: as above; conditions: Abutilon theophrasti; application post-emergence; rate 1000 g/Ha; evaluated after 13 days
Description: as §2

ECHCG [8] = assay: as above; conditions: Echinochloa crus-galli; application post-emergence; rate 1000 g/Ha; evaluated after 13 days
Description: as §2

AMARE [9] = assay: as above; conditions: Amaranthus retroflexus; application post-emergence; rate 1000 g/Ha; evaluated after 13 days
Description: as §2

SETFA [10] = assay: as above; conditions: Setaria faberi; application post-emergence; rate 1000 g/Ha; evaluated after 13 days
Description: as §2

Compound | ZEAMX damage score, application pre-emergence (ZEAMX [1]) | ABUTH damage score, application pre-emergence (ABUTH [2]) | ECHCG damage score, application pre-emergence (ECHCG [3]) | AMARE damage score, application pre-emergence (AMARE [4]) | SETFA damage score, application pre-emergence (SETFA [5]) | Post-emergence herbicidal activity ZEAMX (damage score 0-5) (ZEAMX [6]) | Post-emergence herbicidal activity ABUTH (damage score 0-5) (ABUTH [7]) | Post-emergence herbicidal activity ECHCG (damage score 0-5) (ECHCG [8]) | Post-emergence herbicidal activity AMARE (damage score 0-5) (AMARE [9]) | Post-emergence herbicidal activity SETFA (damage score 0-5) (SETFA [10])
CON1C(=O)N(c2cc(C(F)(F)F)ccn2)C(NCc2ccccc2)[C@@H]1C (stereo partly drawn) [Compound A104] | 3 | 4 | 5 | 5 | 5 | 5 | 5 | 5 | 5 | 5
COC(C)(C)c1ccnc(N2C(=O)N(C)C(C)C2O)c1 (stereo not drawn) [Compound A89] | 2 | 5 | 4 | 5 | 4 | 3 | 5 | 5 | 5 | 5
O=C1N2COCC2C(O)N1c1cc(C(F)(F)F)ccn1 (single isomer, unassigned) [Compound A94] | 4 | 5 | 5 | 5 | 5 | 5 | 5 | 5 | 5 | 5
CON1C(=O)N(c2cc(Cl)c(C(=O)NC(C)(C)C)cn2)C(O)C1C (stereo not drawn) [Compound A70] | 3 | 5 | 5 | 5 | 5 | 5 | 5 | 5 | 5 | 5
C=Cc1cnc(N2C(=O)N(C)C(C)C2O)cc1C(F)(F)F (stereo not drawn) [Compound A62] | 2 | 4 | 4 | 5 | 3 | 2 | 5 | 5 | 5 | 5
CCO[C@H]1[C@H](OC(=O)[C@](OC)(c2ccccc2)C(F)(F)F)N(c2cc(C(F)(F)F)ccn2)C(=O)N1C [Compound A103] | 1 | 1 | 1 | 2 | 4 | 1 | 0 | 0 | 2 | 1
CN1C(=O)N(c2ccc(C(F)(F)F)cn2)C(O)C1O (stereo not drawn) [Compound A81] | 0 | 2 | 0 | 3 | 2 | 0 | 4 | 2 | 4 | 2
CON1C(=O)N(c2ccc(C(F)(F)F)cn2)C(O)C1C (stereo not drawn) [Compound A80] | 2 | 5 | 5 | 5 | 4 | 4 | 5 | 5 | 5 | 5
CON1C(=O)N(c2ccc(C(=O)NC(C)(C)C)cn2)C(O)C1C (stereo not drawn) [Compound A66] | 2 | 5 | 5 | 5 | 4 | 5 | 5 | 5 | 5 | 5
COCCOCc1cnc(N2C(=O)N(C)C(C)C2O)cc1C(F)(F)F (stereo not drawn) [Compound A108] | 2 | 5 | 5 | 5 | 4 | 5 | 5 | 5 | 5 | 5
CC1C(O)N(c2cc(C(F)F)ccn2)C(=O)N1C (stereo not drawn) [Compound A84] | 3 | 5 | 5 | 5 | 5 | 4 | 5 | 5 | 5 | 5
C=CC1C(O)N(c2cc(C(F)(F)F)ccn2)C(=O)N1C (stereo not drawn) [Compound A31] | 2 | 5 | 5 | 5 | 5 | 4 | 5 | 5 | 5 | 5
COC[C@@H]1C(O)N(c2cc(C(F)(F)F)ccn2)C(=O)N1C (stereo partly drawn) [Compound A77] | 3 | 5 | 5 | 5 | 5 | 5 | 5 | 5 | 5 | 5
CCOC1C(O)N(c2cc(C(F)(F)C(F)(F)F)ccn2)C(=O)N1C (stereo not drawn) [Compound A82] | 2 | 5 | 3 | 5 | 3 | 2 | 5 | 4 | 5 | 4
CON1C(=O)N(c2cc(C(C)(F)F)ccn2)C(O)C1C (single isomer, unassigned) [Compound A93] | 3 | 5 | 5 | 5 | 5 | 4 | 5 | 5 | 5 | 5

Reference: patent US11608323B2 (SYNGENTA LIMITED, priority 2013, dated 2023)
